Results on 2 molecules are retold here after patent publication US4569926A, “Stimulation of phagocytosis with somatostatin” (Brigham and Women's Hospital, priority 1983, dated 1986).

The test system of test [1] is Kupffer cells and RES. The experiment in a line: hepatic uptake of colloidal carbon. The format is in vivo, rat. To be noted: zymosan 2,500 μg/100 g i.v. twice, 48 and 24 hr before carbon; GdCl3 500 μg/100 g i.v. once, 24 hour before (FIG. 3). Here is the method: (§1) All of the experiments were performed in female Spraque-Dawley rats (ESS Laboratories, Lynnfield, Mass.) with an initial body weight of 150-180 g, and with unlimited access to Purina laboratory chow and tap water. Control and experimental groups consisted of 3-4 rats. Each experiment was repeated at least twice and the results were pooled. Linear or cyclic somatostatin (Serono) was injected under mild ether anesthesia at 10, 50, 100 or 250 μg in 0.5 ml of saline into the jugular vein once daily for 4 consecutive days in the dose-response study (FIG. 1). Control animals were injected with the same amount of saline. In the time-response study, 0, 1, 2, 3 or 4 daily doses of somatostatin, 50 μg, were injected i.v. (FIG. 2). In the comparative experiments, somatostatin, 250 μg, i.v., was given as in the first study, and standard doses of zymosan (Sigma 2,500 μg/100 g i.v.; twice, 48 and 24 hr before colloidal carbon) and the reticuloendothelial system (RES) blocker gadolinium chloride (Sigma; 500 μg/100 g i.v.; once, 24 hour prior to india ink) were administered to additional groups of rats (FIG. 3). […] A piece of liver was digested in concentrated mineral acid, and, following organic extraction, the concentration of carbon, as in blood hemolysates, was measured spectrophotometrically at 660 nm using the method of Takahashi and Matsuoka (J. Toxicol. Sci., S., 1 (1980).

Test [2] relates to Kupffer cells and RES. The experiment in a line: colloidal carbon clearance from the blood (phagocytic index K). It is filed as in vivo, rat. The conditions noted are these: for clearing potency order by change in K caused by 100 μg of treatment (ΔK/100 μg): crude comparison, rank order. Here is the method:
All of the experiments were performed in female Spraque-Dawley rats (ESS Laboratories, Lynnfield, Mass.) with an initial body weight of 150-180 g, and with unlimited access to Purina laboratory chow and tap water. Control and experimental groups consisted of 3-4 rats. Each experiment was repeated at least twice and the results were pooled. Linear or cyclic somatostatin (Serono) was injected under mild ether anesthesia at 10, 50, 100 or 250 μg in 0.5 ml of saline into the jugular vein once daily for 4 consecutive days in the dose-response study (FIG. 1). Control animals were injected with the same amount of saline. In the time-response study, 0, 1, 2, 3 or 4 daily doses of somatostatin, 50 μg, were injected i.v. (FIG. 2). In the comparative experiments, somatostatin, 250 μg, i.v., was given as in the first study, and standard doses of zymosan (Sigma 2,500 μg/100 g i.v.; twice, 48 and 24 hr before colloidal carbon) and the reticuloendothelial system (RES) blocker gadolinium chloride (Sigma; 500 μg/100 g i.v.; once, 24 hour prior to india ink) were administered to additional groups of rats (FIG. 3). In all of the experiments, 0.1 ml/100 g of the supernatant of centrifuged (3000 rpm/15 min) colloidal carbon (Wagner's india ink) was injected i.v. under mild ether anesthesia. Blood samples (50 μl ) were obtained with heparinized glass capillaries and by puncture of the retro-orbital venous plexus at 3, 6, 12 and 24 minutes after the administration of carbon. The blood samples were lysed in 2 ml of 0.1% Na2 CO3 solution. After 24 minutes, the rats were killed, and the livers were perfused through the portal vein with 20 ml saline to remove trapped blood. Samples of liver, spleen, lung and kidney were fixed in 10% formalin and subsequently processed for light microscopy. A piece of liver was digested in concentrated mineral acid, and, following organic extraction, the concentration of carbon, as in blood hemolysates, was measured spectrophotometrically at 660 nm using the method of Takahashi and Matsuoka (J. Toxicol. Sci., S., 1 (1980).
The phagocytic index or K value was calculated as described by others (Takahashi and Matsuoka, ibid; Biozzi et al, J. Exp. Pathol., 34, 441 (1953)) to indicate the carbon clearance for the blood. Since it was evident that the effect of treatment was maximal on carbon clearance during the first 6 or 12 minutes, K values were obtained only for this time interval. For statistical evaluation, Student's two-tailed t-test was used.

For test [3] the following is noted: in vivo; cited from earlier work.
The test system of test [4] is Kupffer cells. Put plainly: light microscopic examination of liver sections for carbon particles. The conditions noted are these: periportal areas, 24 minutes after carbon. The format is in vivo, rat. Here is the method: as §1
For test [5] the following is noted: in vivo; cited from earlier work. The source holds these as a separate data set.
For test [6] the following is noted: pretreatment with exogenous somatostatin; cited from earlier work.

Consider `[Cl][Gd]([Cl])[Cl]` [GdCl3, gadolinium chloride], for which the “uptake of the carbon to the liver, comparative experiment” value in test [1] is “inhibited”. The “clearing potency order by change in K caused by 100 μg of treatment (ΔK/100 μg)” value in test [2] is “somatostatin >zymosan >GdCl3”. Moreover, the “carbon clearance from the blood, comparative experiment” value in test [2] (zymosan 2,500 μg/100 g i.v. twice, 48 and 24 hr before carbon, GdCl3 500 μg/100 g i.v. once, 24 hour before (FIG. 3)) is on record as “inhibited”.

Regarding somatostatin, the “effect on adrenal and lung lesions” value in test [3] is “beneficial effect”. For the same molecule, the “carbon deposition in liver macrophages (light microscopy)” value in test [4] is on record as “caused numerous macrophages to take up carbons”. In addition, the “effect on experimentally induced pancreatitis” value in test [5] is “beneficial effect”. For the same molecule, in test [6], the cysteamine-induced duodenal ulcer result is “prevents” and the gastric acid output entry was “minimal inhibition”. Moreover, in test [2] (10 μg i.v. once daily for 4 days (FIG. 1)), the “colloidal carbon clearance from the blood, dose-response” value is reported as “less effective than the other doses”. The “clearing potency order by change in K caused by 100 μg of treatment (ΔK/100 μg)” value in test [2] is given as “somatostatin >zymosan >GdCl3”. Moreover, in test [2] (doses of 50, 100 or 250 μg i.v. once daily for 4 days (FIG. 1)), the “colloidal carbon clearance from the blood, dose-response” value was “very similar results”. Moreover, the “colloidal carbon clearance from the blood” value in test [2] (female Sprague-Dawley rats, somatostatin i.v. once daily for 4 days vs saline, effect most dramatic during first 6-12 minutes (FIG. 1)) was “markedly accelerated”. For the same molecule, in test [2] (time-response study, 50 μg i.v., three or four doses (one per day) (FIG. 2)), the “phagocytic index or K value” is recorded as “significantly enhanced”.
